# Measured values from US7935853B2, “Micronized composition of a 2,4-disubstituted phenol derivative” (priority 2008, dated 2011).
# “And” between values parts separate entries of the source, which are not always exact repeats. Identical values can stand only once.
# Biological target: T1, 5-lipoxygenase (Rattus norvegicus, UniProt P12527)
# T1 construct: leukotriene B4 formation (LTB4) by 5-lipoxygenase ex-vivo in rat whole blood stimulated with calcium ionophore; from tissue
# T1 sequence (P12527 1-673): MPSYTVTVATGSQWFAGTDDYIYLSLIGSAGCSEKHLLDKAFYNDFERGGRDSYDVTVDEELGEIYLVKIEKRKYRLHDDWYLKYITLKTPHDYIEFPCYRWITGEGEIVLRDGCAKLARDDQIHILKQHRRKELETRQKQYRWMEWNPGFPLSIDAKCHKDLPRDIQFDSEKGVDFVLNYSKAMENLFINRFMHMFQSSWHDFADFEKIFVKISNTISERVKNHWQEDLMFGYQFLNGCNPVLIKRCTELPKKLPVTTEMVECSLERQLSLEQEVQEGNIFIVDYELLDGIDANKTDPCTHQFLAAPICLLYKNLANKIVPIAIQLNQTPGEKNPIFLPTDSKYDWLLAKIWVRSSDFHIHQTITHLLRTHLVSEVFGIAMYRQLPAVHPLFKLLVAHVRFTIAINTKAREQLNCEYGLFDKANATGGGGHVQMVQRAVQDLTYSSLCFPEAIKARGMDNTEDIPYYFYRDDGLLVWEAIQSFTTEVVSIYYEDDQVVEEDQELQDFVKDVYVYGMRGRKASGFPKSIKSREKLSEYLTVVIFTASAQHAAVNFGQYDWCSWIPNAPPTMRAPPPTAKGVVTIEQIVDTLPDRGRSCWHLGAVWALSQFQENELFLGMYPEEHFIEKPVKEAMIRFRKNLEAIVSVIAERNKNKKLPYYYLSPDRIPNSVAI
# Experiment: Inhibitory activity over 5-lipoxygenase ex-vivo in rat whole blood (LTB4 by EIA)
# Details: for LTB4 (ng/ml), group mean / LTB4 (ng/ml), individual samples: blood 1 h after last dose, calcium ionophore 30 μM; for LTB4 (ng/ml), individual samples / LTB4 % inhib., individual samples: individual rats
# Procedure: In the example shown 3 groups of animals (rats) were used, with 6 rats in each group. The groups were;
# 1 group 1: control (vehicle)
# 2 group 2: treated with micronized test substance (10 mg/Kg)
# 3 group 3: treated with non-micronized test substance (10 mg/Kg)
# The distribution of animals to each group was done in a randomized manner at the start of the study.
# The test and reference substances were administered orally as a suspension in 0.25% carboximethylcellulose in a dosing volume of 4 ml/kg via an oral cannula.
# Test substance administration was carried out once every 24 hours (09 h 00 min) for 5 consecutive days. On the 5th day a blood sample was obtained from each animal (1 mL) 1 hour after administration of the test and reference substances. Blood samples were obtained from the posterior (abdominal) vena cava in sterile syringes containing sodium citrate (4%) as an anticoagulant. Each blood sample was divided into two 0.5 ml aliquots (duplicates). A 1 hour time lapse after test substance administration was used before obtaining the blood samples as it was determined in preliminary studies that this is when there is a greater inhibition of leukotriene synthesis by the test substance.
# Immediately after collection of the blood samples, the duplicated aliquots were incubated at 37° C. for 10 min. After this time, the aliquots were stimulated with calcium ionophore (30 μM, final concentration) for 30 min at 37° C. Once the incubation period was over the aliquots were centrifuged at 12.000 g for 2 minutes. The resulting plasma was separated and stored at −20° C. for its posterior analysis. In these samples the concentration of leukotriene B4 was determined by enzyme immunoassay (kit EIA; Amersham).
# [1] = 10 mg/Kg oral once daily 5 days, 10 mg/kg
# [2] = 10 mg/Kg oral once daily 5 days, vs control, 10 mg/kg
SMILES,"LTB4 (ng/ml), group mean (group mean, 6 rats, 10 mg/Kg oral once daily 5 days, listed as S. Ref., 10 mg/kg)","LTB4 % inhib., group mean (group mean, 6 rats, 10 mg/Kg oral once daily 5 days, vs control, listed as S. Ref., 10 mg/kg)","LTB4 (ng/ml), individual samples [1]","LTB4 % inhib., individual samples [2]","degree of LTB4 inhibition compared with the other form (10 mg/kg, 5 days oral)","inhibition of leukotriene B4 formation by 5-lipoxygenase ex-vivo (in words) (10 mg/kg, 5 days oral, P<0.05 ANOVA+Dunnett's test)","LTB4 (ng/ml), group mean (group mean, 6 rats, 10 mg/Kg oral once daily 5 days, 10 mg/kg)","inhibition at 10 mg/kg (rat, po, group mean, 6 rats, 10 mg/Kg oral once daily 5 days, vs control, read-out: LTB4 % inhib., group mean)"
"Oc1c(I)cc(I)cc1I [Non-Micronized, 2,4,6-triiodophenol]",6.496 ng/mL,20.818%,6.862 ng/ml and 4.355 ng/ml (2×) and 4.905 ng/ml and 8.818 ng/ml and 9.682 ng/ml,16.356% and 46.917% and 40.210% and −7.480% and −18.013%,,,,
"Oc1c(I)cc(I)cc1I [Micronized, 2,4,6-triiodophenol]",,,6.549 ng/mL and 5.032 ng/mL and 4.583 ng/mL and 6.118 ng/mL and 4.602 ng/mL and 6.067 ng/mL,20.176% and 38.665% and 44.140% and 25.423% and 43.902% and 26.054%,superior to that obtained with the non-micronized product,"inhibits, in a statistically significant manner",5.492 ng/mL,33.1%
